What all share (assay): CellTiter-Glo assay, drug administered alone
What all share (type): cell-based
On the technique in general: In ATP-based viability assays light output follows the ATP content of the culture.

Test [1] deals with BDCM leukemia cell line.
Test [2] concerns BDCM leukemia cell line. Conditions: 72 h. As to the method: (§1) The first and second tests were performed in triplicate on the above cell lines while reducing the concentration of venetoclax by half each time from 100 μM, and the third test was performed in triplicate on the BDCM cell line while reducing the concentration of venetoclax by half each time from 100 μM, and performed in triplicate on HL-60, MolM13, MolM14, and MV4-11 cell lines while reducing the concentration of venetoclax by half each time from 2.5 μM. The fourth test was performed in triplicate on HL-60, MolM13, MolM14, and MV4-11 cell lines while reducing the concentration by half each time from 2.5 μM.
(§2) Specifically, in the first and second tests, a 10-fold diluted solution was prepared by dissolving 50 μL of 10 mM venetoclax in 450 μL of solvent. 250 μL of the solution was serially diluted ½, an 8E-tube was filled with 250 μL of each dilution, and 80 μL of each cell line was dispensed into each well of a 96-well plate. Thereafter, 10 μL of each cell line was dispensed using JANUS and incubated for 72 hours under CO2. Celltiter-Glo assay was performed and then IC50 was calculated.
(§3) In the third test, for the BCDM cell line, a 10-fold diluted solution was prepared by dissolving 15 μL of 10 mM venetoclax in 135 μL of solvent. 100 μL of the solution was serially diluted ½, an 8E-tube was filled with 100 μL of each dilution, and the cell line was dispensed into a 96-well plate. Thereafter, 25 μL of the cell line was dispensed using JANUS and incubated for 72 hours under CO2. Celltiter-Glo assay was performed and then IC50 was calculated. Meanwhile, for the HL-60, MolM13, MolM14, and MV4-11 cell lines, a 10-fold diluted solution was prepared by dissolving […] of solvent. 200 μL of the solution was serially diluted ½, an 8E-tube was filled with 200 μL of each dilution, and each of the cell lines was dispensed into a 96-well plate. Thereafter, 60 μL of each cell line was dispensed using JANUS and incubated for 72 hours under CO2. Celltiter-Glo assay was performed and then IC50 was calculated.
(§4) The first and second tests were performed in triplicate on the above cell lines while reducing the concentration of 5-azacytidine by half each time from 100 μM. Specifically, in the first and second tests, a 10-fold diluted solution was prepared by dissolving 15 μL of 20 mM 5-azacytidine in 285 μL of solvent. 250 μL of the solution was serially diluted ½, an 8E-tube was filled with 250 μL of each dilution, and 80 μL of each cell line (3,000 cells) was dispensed into each well of a 96-well plate. Thereafter, 10 μL of each cell line was dispensed using JANUS and incubated for 72 hours under CO2. Celltiter-Glo assay was performed and then IC50 was calculated.
as §4, with “cytarabine” for “5-azacytidine”, “50,000” for “100”, “10” for “15”, “50” for “20”, “490” for “285”

The test system of test [3] is MV4-11 leukemia cell line. Conditions: Homo sapiens. As to the method:
as §1, §2, §3
(§5) The fourth test was performed on HL-60, MolM13, MolM14, and MV4-11 cell lines in the same manner as the third test.
as §4
as §4, with “cytarabine” for “5-azacytidine”, “50,000” for “100”, “10” for “15”, “50” for “20”, “490” for “285”

The subject of test [4] is MolM14 leukemia cell line. Conditions: Homo sapiens. As to the method:
as §1, §2, §3, §5, §4
as §4, with “cytarabine” for “5-azacytidine”, “50,000” for “100”, “10” for “15”, “50” for “20”, “490” for “285”

Test [5] has as its system HL-60 leukemia cell line. Conditions: Homo sapiens, HL-60, 72 h, 72 hours. As to the method: as §1, §2, §3, §5, §4
as §4, with “cytarabine” for “5-azacytidine”, “50,000” for “100”, “10” for “15”, “50” for “20”, “490” for “285”

Test [6] concerns MolM13 leukemia cell line. Conditions: Homo sapiens. The protocol: as §1, §2, §3, §5, §4
as §4, with “cytarabine” for “5-azacytidine”, “50,000” for “100”, “10” for “15”, “50” for “20”, “490” for “285”

Test [7] concerns U937 leukemia cell line. Conditions: Homo sapiens.
Test [8] deals with HL-60 leukemia cell line. Conditions: Homo sapiens.
Test [9] concerns U937 leukemia cell line. Conditions: Homo sapiens, U-937, 72 h. The protocol: as §1, §2, §4
as §4, with “cytarabine” for “5-azacytidine”, “50,000” for “100”, “10” for “15”, “50” for “20”, “490” for “285”

For test [10], the system named is THP-1 leukemia cell line. Conditions: Homo sapiens, THP-1, 72 h. The protocol:
as §1, §2, §4
as §4, with “cytarabine” for “5-azacytidine”, “50,000” for “100”, “10” for “15”, “50” for “20”, “490” for “285”

Test [11] relates to THP-1 leukemia cell line. Conditions: Homo sapiens.
Setting [12] is: azacitidine administered alone, Table 10, read-out: IC50 Azacitidine.
Where [13] appears, read: 5-azacytidine alone, read-out: IC50 First test.
The mark [14] stands for this setting: 5-azacytidine alone, read-out: IC50 Second test.
Setting [15] is: cytarabine administered alone, Table 13, read-out: IC50 Cytarabine.
Setting [16] is: cytarabine alone, read-out: IC50 First test.
Where [17] appears, read: cytarabine alone, read-out: IC50 Second test.

Structures are written as SMILES. Where two headings read alike, the source gives them in different places.

In general, IC50 refers to the point on the concentration scale where inhibition reaches its midpoint. `Nc1ncn([C@@H]2O[C@H](CO)[C@@H](O)[C@H]2O)c(=O)n1` [5-azacytidine]: the half-inhibitory concentration (IC50) in test [1] (setting [12]) was 98200 nM; in test [2] (setting [13]), 14800 nM; in test [2] (setting [14]), 23600 nM; in [3] (5-azacytidine alone, 72 hours, read-out: IC50 First test), 3050 nM; in [3] (5-azacytidine alone, 72 hours, read-out: IC50 Second test), 2450 nM; in [3] (setting [12]), 2050 nM. Besides, the half-maximal inhibitory concentration (IC50) turned out to be 3880 nM in test [4] (MOLM-14, 72 h, 5-azacytidine alone, MolM14, 72 hours, read-out: IC50 First test); 2820 nM in test [4] (MOLM-14, 72 h, 5-azacytidine alone, MolM14, 72 hours, read-out: IC50 Second test); 1590 nM in [4] (MOLM-14, azacitidine administered alone, MolM 14, Table 10, read-out: IC50 Azacitidine); 14700 nM in test [5] (setting [13]); 13200 nM in test [5] (setting [14]); 1710 nM in test [6] (MOLM-13, 5-azacytidine alone, MolM13, 72 hours, read-out: IC50 First test). The concentration for half-maximal inhibition (IC50) came out at 1410 nM in test [6] (MOLM-13, 5-azacytidine alone, MolM13, 72 hours, read-out: IC50 Second test); 1380 nM in test [6] (azacitidine administered alone, MolM 13, Table 10, read-out: IC50 Azacitidine); 3060 nM in test [7] (U-937, azacitidine administered alone, Table 10, read-out: IC50 Azacitidine); 9660 nM in test [8] (HL-60, azacitidine administered alone, Table 10, read-out: IC50 Azacitidine); 1910 nM in [9] (setting [13]); 2540 nM in [9] (setting [14]). The concentration for half-maximal inhibition (IC50) is 6080 nM in test [10] (setting [13]); 6380 nM in test [10] (setting [14]); 3380 nM in test [11] (THP-1, azacitidine administered alone, Table 10, read-out: IC50 Azacitidine).

Take `Nc1ccn([C@@H]2O[C@H](CO)[C@@H](O)[C@@H]2O)c(=O)n1` [Cytarabine]: the IC50 in test [1] (setting [15]) was 2340 nM; in test [2] (setting [16]) it was 2830 nM; in [2] (setting [17]), 4480 nM; in test [3] (setting [15]), 81 nM; in [3] (cytarabine alone, 72 hours, read-out: IC50 First test), 100 nM; in test [3] (cytarabine alone, 72 hours, read-out: IC50 Second test) it was 108 nM. Further, the IC50 turned out to be 99 nM in [4] (MOLM-14, 72 h, cytarabine alone, MolM14, 72 hours, read-out: IC50 First test); 93.3 nM in test [4] (MOLM-14, 72 h, cytarabine alone, MolM14, 72 hours, read-out: IC50 Second test); 84.7 nM in test [4] (MOLM-14, cytarabine administered alone, MolM 14, Table 13, read-out: IC50 Cytarabine); 221 nM in test [5] (setting [16]); 163 nM in test [5] (setting [17]); 39 nM in test [6] (MOLM-13, cytarabine alone, MolM13, 72 hours, read-out: IC50 First test). The IC50 in test [6] (MOLM-13, cytarabine alone, MolM13, 72 hours, read-out: IC50 Second test) stood at 41.8 nM; in [6] (cytarabine administered alone, MolM 13, Table 13, read-out: IC50 Cytarabine) it was 29.6 nM; in test [7] (U-937, cytarabine administered alone, Table 13, read-out: IC50 Cytarabine), 9.25 nM; in test [8] (HL-60, cytarabine administered alone, Table 13, read-out: IC50 Cytarabine), 170 nM; in test [9] (setting [16]), 18.3 nM; in test [9] (setting [17]), 18.4 nM. Further, the IC50 in test [10] (setting [16]) was determined as 11.2 nM; in test [10] (setting [17]) it was 15.3 nM; in test [11] (THP-1, cytarabine administered alone, Table 13, read-out: IC50 Cytarabine), 10.6 nM.
